Measurements taken from patent publication US20060088596A1, “Solubilizing a drug for use in a coating” (ATRIUM MEDICAL CORPORATION, priority 2004, published 2006).

Experiments:
Porcine Coronary Model = conditions: stent coated with agent solubilized in eicosapentaenoic acid oil vs eicosapentaenoic acid oil coated stents; cited from earlier work
[1] = Maximum solubility / drug loading of therapeutic agent in vitamin E / bio-absorbable carrier base coating (crystal inspection after solvent removal); format: physicochemical; conditions: for maximum solubility: NMP
Description: The amount of solvent that can be included in compositions of the present invention is not particularly limited. In accordance with one embodiment of the present invention, the amount of the therapeutic agent to be dissolved can be an amount up to the maximum amount that can be dissolved in the solvent, vitamin E compound and the bio-absorbable carrier component. The maximum amount of the therapeutic agent that can be dissolved is readily determined by simple mixing, as the presence of any non-dissolved therapeutic agent is apparent after solvent removal on visual inspection. In various embodiments, the amount of the therapeutic agent will be less than the maximum that can be dissolved. Upon administration to a subject of the therapeutic agent dissolved in the bio-absorbable carrier and the solvent, the amount of the given solvent can be limited to a pharmaceutically acceptable amount, which can be readily determined by one of skill in the art. In various aspects, it can be appropriate to include amounts of solvents in excess of pharmaceutically acceptable amounts, with excess solvent removed prior to providing the administration of the composition using conventional techniques such as evaporation.
Referring again to FIG. 1, the ratio of a vitamin E compound and the bio-absorbable carrier component is then determined (step 130). […] The bio-absorbable carrier component can include fish oil, fish oil mono, di and triglycerides, free fatty acids, fatty acid esters, partially oxidized oil, or hydrolyzed oil and any derivatives. After the formulations are made the solvent is removed from the sample under vacuum and the drug formulation is inspected under a microscope for crystal formation. The level of soluble drug can be influenced by such factors as vitamin E level, fish oil level, fatty acid ester content, free fatty acid content, mono, di or triglyceride content, presence of oxidation, or by hydrolysis byproducts of the oil. The amount of soluble drug can also be effected by the solvent and/or solvent loading that is used to load the drug into the formulation.
Referring again to FIG. 1, the bio-absorbable carrier component and the vitamin E compound or a combination thereof are provided (step 130). In accordance with one aspect of the present invention, the bio-absorbable carrier component and the vitamin E compound can be mixed together, for example, by vortexing, sonicating, stirring, rolling, or shaking, to form a second mixture (step 140). Accordingly, the second mixture can be mixed first, the first mixture can be mixed first, or the first mixture and the second mixture can be mixed substantially simultaneously. The first mixture and the second mixture can then be mixed (step 150) such that the therapeutic agent is dissolved, or, if the therapeutic agent was previously dissolved in the solvent, the therapeutic agent remains dissolved. After mixing the first mixture and the second mixture, the solvent is removed by techniques well known in the art, for example, by vacuum, washing, heating, evaporation and the like (step 160). Upon removal of the solvent, the resulting solution can be inspected for presence of crystal formation by techniques well known in the art (step 170). Suitable techniques for inspection for the presense of crystal formation include, for example, visual inspection, microscopic inspections, as well as chemical analysis techniques such as scanning electron microscopy (SEM), environmental scanning electron microscopy (ESEM), differential scanning calorimetry (DSC) and atomic force microscopy (AFM).
A bio-absorbable carrier component in combination with a vitamin E compound was made by mixing 1.5 grams of vitamin E and 3.5 grams of fish oil to form a base coating (30% vitamin E). A sample was then prepared by first dissolving 28 mg of rapamycin in 529 mg of NMP (N-methyl-2-pyrrolidone).

For `C=C1[C@@H](C)[C@H]2[C@H](Cc3ccccc3)NC(=O)[C@]23[C@H](OC(C)=O)/C=C/[C@@](C)(O)C(=O)[C@@H](C)C/C=C/[C@H]3[C@@H]1O` [cytochalasin D], the “less area stenosis compared to the control group” value (Porcine Coronary Model) is given as 38% and the “less intimal hyperplasia compared to the control group” value (Porcine Coronary Model) is given as 39%.

For `COc1ccc2[nH]cc(CCNC(C)=O)c2c1` [melatonin], the maximum solubility ([1]; 70% vitamin E and 30% fish oil fatty acid formulation) was “greater than 28%”, the maximum solubility ([1]; 70% vitamin E and 30% fish oil formulation) was 11.5% and the “dissolution state of drug in coating after drying” value (shortened to “dissolution state of drug”) ([1]; 70% vitamin E and 30% fish oil, 9% by weight loading using N-methyl-2-pyrrolidone) was “totally dissolved”. For the same compound, the “dissolution state of drug” value ([1]; 70% vitamin E and 30% fish oil, 9% by weight loading using ethanol) was “forms crystals”, the “maximum level of drug loading attainable before crystals began to form after drying” value (from here on “maximum level”) ([1]; 70% vitamin E/30% fish oil base coat, drug loaded from NMP) was 11.5% and the “maximum level” value ([1]; 70% vitamin E/30% fish oil fatty acids (FOFA) base coat, drug loaded from NMP) was 28%.

For `CC(=O)O[C@H]1C(=O)[C@@]2(C)[C@H]([C@H](OC(=O)c3ccccc3)[C@]3(O)C[C@H](OC(=O)[C@H](O)[C@@H](NC(=O)c4ccccc4)c4ccccc4)C(C)=C1C3(C)C)[C@]1(OC(C)=O)CO[C@@H]1C[C@@H]2O` [paclitaxel], the “maximum level” value ([1]; 70% vitamin E/30% fish oil base coat, drug loaded from ethanol) was 4.9%, the “dissolution state of drug” value ([1]; 70% vitamin E/30% fish oil, 4.9% by weight loading using N-methyl-2-pyrrolidone) was “not totally dissolved” and the “dissolution state of drug” value ([1]; 70% vitamin E/30% fish oil, 5% by weight loading using ethanol) was “completely dissolved”.
